Measured values as given in patent publication US5538993A, “Certain tetrahydrocannabinol-7-oic acid derivatives” (priority 1991, dated 1996).

What was measured:
[1] = previously shown; cited from earlier work
peritoneal leukocytes = test: Leukocyte adhesion assay (peritoneal cells after oral dosing); assay type: in vivo, female CD-1 mice; conditions: cells collected 90 min after dosing; for number of adhering cells: ± S.D
Experimental: Leukocytes are thought to be major contributors to the inflammatory response and their ability in this regard is reflected by their adhesiveness to a variety of substrates [Audette, C. A., et al., ibid.] Sci., 47, 753 (1990)].
The details of the leukocytes adhesion assay have been previously reported [Audette et al., ibid.]. In brief, peritoneal cells from female CD-1 mice (20-25 g) were collected at 90 min following oral administration of the drug or vehicle (50 μl peanut oil). Cells from each treatment group (N=3) were pooled and equal numbers aliquoted into six culture dish wells (1.9 cm^2 area). After incubation for 18-20 hours, non-adhering cells were removed and the remaining cell monolayer quantitated by DNA measurement.

PAF-Induced Paw Edema = test: Inhibition of PAF-induced paw edema; assay type: in vivo, CD-1 female mice; conditions: for Inhibition of PAF-Induced Paw Edema: vs vehicle treated controls, 15 min after PAF
Experimental: A second model, in which edema is induced by platelet activating factor (PAF), was used to evaluate activity.
(§1) The conditions were based on those reported previously [Calhoun et al., ibid.]. […] PAF (1.0 μq) or arachidonic acid (1.0 mg) dissolved in 50 μl of 5% ethanol in saline, were injected s.c. into the plantar surface of the right hind paw of CD-1 female mice (20-25 g) obtained from Charles River Labs. The mice were under ether anesthesia during this procedure. The volume of the right foot was measured to the level of the lateral malleotis by water displacement before treatment and 15 min after PAF injection or 30 min after archidonate injection. The change in paw volume was calculated for each mouse and the significance for each group was determined by a paired t test analysis.

forebrain ischemia = test: Protection against forebrain ischemia (unilateral occlusion); assay type: in vivo; conditions: mongolian gerbils, result in words
Description: (§2) The present compounds are active in several tests generally used to indicate neuroprotection.

mouse hot plate test = test: Hot plate test for antinociception (55° C.); assay type: in vivo; conditions: 90 min before test
Experimental: In the hot plate test for analgesia an aluminum surface was maintained at 55±1° C. by circulating water through passages in the metal. A clear plastic cylinder 18 cm in diameter and 26 cm high was placed on the surface to prevent escape. The end point was taken when the mouse either performed a hind paw lick or jumped off the surface; in no case were the animals kept for more than 30 secs on the plate. Mice were never used more than one time; control values were always measured at 11 a.m. and test values at 2 p.m. The drugs were administered orally 90 min before the hot plate test. The percent change in response time (latency) was calculated by comparing the mean of the control values with the mean of the test values and statistical signficance determined by a paired tetest analysis using software (Statview, 512) from Brainpower, Inc., Calabasas, Calif.

[2] = system: Picrotoxin induced lethality; test: Protection against picrotoxin induced lethality; assay type: in vivo, Balb/c male mice; conditions: drug 10 mg/kg, 120 min before picrotoxin (8 mg/kg)
Experimental: as §2
(§3) Balb/c male mice were administered with the drug 90 min before treatment with NMDA (125 mq/kg) or 120 min before picrotoxin (8 mg/kg) in emulsion, s.c. The survival rate shown in Table VI indicates number of survivors out of total number of animals used.

[3] = system: N-methyl-D-aspartate (NMDA) induced lethality; test: Protection against NMDA induced lethality; assay type: in vivo, Balb/c male mice; conditions: drug 10 mg/kg, 90 min before NMDA
Experimental: as §2, §3

[4] = system: Arachidonic Acid-Induced Paw Edema; test: Inhibition of arachidonic acid-induced paw edema; assay type: in vivo, CD-1 female mice
Description: The induction of paw edema in rodents by injection of arachidonic acid has been used as an experimental model for inflammation [Calhoun, W., et al., Agents and Actions, 21, 306 (1987)]. Prior administration of non-steroidalanti-inflammatory drugs (NSAIDs) in many cases leads to a dose related inhibition of the edematous response which may be considered a predictor of clinical efficacy.
as §1

intraocular pressure = test: Reduction of intraocular pressure (anti-glaucoma); assay type: in vivo, rabbits; conditions: 50 μl drop of a 1% emulsion into rabbit eye
Experimental: Reduction of intraocular pressure in rabbits was determined by the addition of a 50 μl drop of a 1% emulsion of the cannabinoid into the rabbit eye. This test is a measure of anti-glaucoma activity.

cataleptic response = test: Cataleptic effects, ring test; assay type: in vivo, mouse; conditions: 5 min test period, ± SD
Experimental: The lack of CNS activity for the compounds described herein may be seen from the data shown in Table V. This was measured by the so-called "ring test" [Pertwee, R. G., et al., J. Pharmacol., 46, 753 (1972)] in which the cataleptic effects of cannabinoids can be quantitated. The compounds produced little or no response when compared with the parent drug.
The cataleptic response was measured using the ring test. Mice were placed on a horizontal wire ring 5.5 cm in diameter, which was attached to a 16 cm vertical rod. The hind paws and fore paws were placed at opposite sides of the ring. It is important that the ambient temperature is maintained at 30° C. and that the environment be free of auditory stimuli and bright lights. The criteria for immobility are detailed by Pertwee. The response is calculated as the fraction of time the mouse is immobile over a 5 min. test period. Measurements were always done between 2 and 4 p.m. and the animals were used only once.

Molecule | analgetic activity [1] | adhering cells, percent of control (peritoneal leukocytes; 0.05 mg/kg oral) | number of adhering cells (peritoneal leukocytes; 0.05 mg/kg oral) | adhering cells, percent of control (peritoneal leukocytes; 0.10 mg/kg oral) | number of adhering cells (peritoneal leukocytes; 0.10 mg/kg oral) | adhering cells, percent of control (peritoneal leukocytes; 0.50 mg/kg oral) | number of adhering cells (peritoneal leukocytes; 0.50 mg/kg oral) | adhering cells, percent of control (peritoneal leukocytes; 1.00 mg/kg oral) | number of adhering cells (peritoneal leukocytes; 1.00 mg/kg oral) | Inhibition of PAF-Induced Paw Edema (PAF-Induced Paw Edema; 0.5 mg/kg) | Inhibition of PAF-Induced Paw Edema (PAF-Induced Paw Edema; 1.0 mg/kg) | protection against forebrain ischemia (forebrain ischemia) | percent change in latency (mouse hot plate test; 0.25 mg/kg oral) [%] | percent change in latency (mouse hot plate test; 0.50 mg/kg oral) [%] | percent change in latency (mouse hot plate test; 1.0 mg/kg oral) [%] | Survival rate (survivors out of total) [2] | Survival rate (survivors out of total) [3] | also measured
CCCCCc1cc(O)c2c(c1)OC(C)(C)[C@@H]1CCC(C(=O)O)=C[C@@H]21 [Compound 2, (3R,4R)-delta-1-tetrahydrocannabinol-7-oic acid] | analgetic | – | – | – | – | – | – | – | – | – | – | – | – | – | – | – | – | antiinflammatory activity [1]: antiinflammatory; psychotropic effects [1]: no psychotropic effects
CCCCCCC(C)(C)c1cc(O)c2c(c1)OC(C)(C)[C@H]1CC=C(CO)C[C@H]21 [HU-211, 7-hydroxy-delta-6-tetrahydrocannabinoldimethylheptyl, reference compound] | analgetic | 124% of control | 1.09 ± 0.08 number of adhering cells × 10^-6 | 50% of control | 0.44 ± 0.03 number of adhering cells × 10^-6 | 73% of control | 0.64 ± 0.06 number of adhering cells × 10^-6 | 67% of control | 0.59 ± 0.06 number of adhering cells × 10^-6 | 37.5% | 21.9% | shown to protect against forebrain ischemia | 30.0 | 72.5 | -10.2 | 6/10 | 11/16 | anti-NMDA activity [1]: anti-NMDA; antiemetic activity [1]: entiemetic
CCCCCCC(C)(C)c1cc(O)c2c(c1)OC(C)(C)[C@H]1CC=C(C(=O)O)C[C@H]21 [HU-235] | – | 102% of control | 1.29 ± 0.05 number of adhering cells × 10^-6 | 110% of control | 1.38 ± 0.17 number of adhering cells × 10^-6 | 116% of control | 1.46 ± 0.05 number of adhering cells × 10^-6 | 56% of control | 0.70 ± 0.12 number of adhering cells × 10^-6 | 60.1% | – | shown to protect against forebrain ischemia | 61.5 | 61.5 | 51.7 | 8/12 | 7/10 | Inhibition of Arachidonic Acid-Induced Paw Edema ([4]; 0.050 mg/kg, vs vehicle treated controls, 30 min after arachidonate): 42.1%; reduction of arachidonic acid paw edema ([4]; result in words): effective in reducing paw edema; adhering cells, percent of control (peritoneal leukocytes; 0.01 mg/kg oral): 106% of control; number of adhering cells (peritoneal leukocytes; 0.01 mg/kg oral): 1.34 ± 0.14 number of adhering cells × 10^-6; Inhibition of PAF-Induced Paw Edema (PAF-Induced Paw Edema; 0.05 mg/kg): 44.4%; Inhibition of PAF-Induced Paw Edema (PAF-Induced Paw Edema; 0.10 mg/kg): 38.7%; Inhibition of PAF-Induced Paw Edema (PAF-Induced Paw Edema; 0.25 mg/kg): 31.9%; activity in PAF-induced edema (PAF-Induced Paw Edema; result in words): active; reduction of intraocular pressure (intraocular pressure): Significant reduction; cataleptic response (fraction of time immobile) (cataleptic response; 0.25 mg/kg): 12.3 ± 10.3; cataleptic response (fraction of time immobile) (cataleptic response; 0.5 mg/kg): 13.8 ± 7.9; cataleptic response (fraction of time immobile) (cataleptic response; 1.0 mg/kg): 10.4 ± 10.6; cataleptic response (fraction of time immobile) (cataleptic response; 4.0 mg/kg): 8.7 ± 5.6; percent change in latency (mouse hot plate test; 0.02 mg/kg oral): 10.3%; percent change in latency (mouse hot plate test; 0.05 mg/kg oral): 61.7%; percent change in latency (mouse hot plate test; 0.10 mg/kg oral): 49.5%; percent change in latency (mouse hot plate test; 2.0 mg/kg oral): 14.7%
CCCCCc1cc(O)c2c(c1)OC(C)(C)[C@@H]1CCC(C)=C[C@@H]21 [Δ^1 -THC, (3R,4R)-delta-1-tetrahydrocannabinol, reference compound] | – | – | – | – | – | – | – | – | – | – | – | – | – | – | – | – | – | cataleptic response (fraction of time immobile) (cataleptic response; 40 mg/kg): 48.9 ± 16
CCCCCc1cc(O)c2c(c1)OC(C)(C)[C@@H]1CC=C(C(=O)O)C[C@@H]21 [Δ^6 -THC-7-oic acid, reference compound] | – | – | – | – | – | – | – | – | – | N.S. | N.S. | – | – | – | – | – | – | Inhibition of PAF-Induced Paw Edema (PAF-Induced Paw Edema; 40.0 mg/kg): 50.2%
THC-7-oic Acid [reference compound] | – | – | – | – | – | – | – | – | – | – | – | – | – | – | – | – | – | adhering cells, percent of control (peritoneal leukocytes; 20 mg/kg oral): 90.6% of control; number of adhering cells (peritoneal leukocytes; 20 mg/kg oral): 0.67 ± 0.02 number of adhering cells × 10^-6; adhering cells, percent of control (peritoneal leukocytes; 40 mg/kg oral): 67.9% of control; number of adhering cells (peritoneal leukocytes; 40 mg/kg oral): 0.55 ± 0.22 number of adhering cells × 10^-6
